How the values were obtained:
[1] = In vivo antitumor testing, Pat-7 in nude mice; conditions: nude, mouse, in vivo
Method: (§1) All tumor implants for efficacy testing were subcutaneous (sc).
(§2) The MTD was frequently equivalent to OD. When death occurs, the day of death was recorded.
(§3) And, Log cell kill=T−C÷(3.32×TVDT)
(§4) This tumor model was established from a tumor biopsy of an ovarian cancer patient (Pat-7), who was initially responsive to TAXOL® treatment but ultimately developed resistance to it following nine courses of monotherapy with TAXOL®. Prior to treatment with TAXOL®, Pat-7 also received numerous other chemotherapeutic agents including carboplatin, cytoxan, VP-16, ifosfamide and altretamine. Tumor biopsy was taken following development of TAXOL® resistance.

[2] = test system: Pat-7 human ovarian carcinoma; test: In vivo antitumor testing, Pat-7 in nude mice
Method: as §1, §2, §3, §4

[3] = In vivo antitumor testing, LS174T xenograft; design: species or system nude mice; conditions: nude, mouse, in vivo, iv; read-out: OD (optimal dose or MTD)
Method: as §1, §2, §3

[4] = test system: LS174T human colon carcinoma; test: In vivo antitumor testing, LS174T xenograft; design: species or system nude mice; conditions: Expt. R578, IV q4dx3, OD 16 mg/kg
Method: as §1, §2, §3

[5] = In vivo antitumor testing, Pat-7 in nude rats; conditions: nude, rat, in vivo, iv; read-out: OD (optimal dose or MTD)
Method: as §2, §3

[6] = test system: Pat-7 human ovarian carcinoma; test: In vivo antitumor testing, Pat-7 in nude rats; conditions: Expt. 15, nude rats, IV q8dx2, OD 3 mg/kg
Method: as §2, §3

[7] = human, in vivo
[8] = test system: normal mouse lung fibroblast cell line MLF; test: In vitro cytotoxicity (MTS assay), MLF; format: cell-based
Method: (§5) The in vitro cytotoxicity was assessed in tumor cells by a tetrazolium-based colorimetric assay which takes advantage of the metabolic conversion of MTS (3-(4,5-dimethylthiazol-2-yl)-5-(3-carboxymethoxyphenyl)-2-(4-sulphenyl)-2H-tetrazolium, inner salt) to a reduced form that absorbs light at 492 nm. Cells were seeded 24 hr prior to drug addition. Following a 72 hour incubation at 37° C. with serially diluted compound, MTS, in combination with the electron coupling agent phenazine methosulfate, was added to the cells. The incubation was continued for 3 hours, then the absorbancy of the medium at 492 nm was measured with a spectrophotometer to obtain the number of surviving cells relative to control populations. The results are expressed as median cytotoxic concentrations (IC50 values).

Pat-21 breast carcinoma = conditions: Expt. R667, IV q4dx3; 41, 68, OD 10 mg/kg; interim analysis, study in progress
From the text: The following tumors were passaged in the indicated host strain of mouse: murine M5076 fibrosarcoma (M5076) in C57Bl/6 mice; human A2780 and Pat-7 ovarian carcinomas, HCT116, HCT116/VM46 and LS174T colon carcinoma, Pat-21 breast carcinoma in nude mice. Tumor passage occurred biweekly for murine tumors and approximately every two to eight weeks for the various human tumor lines. With regard to efficacy testing, M5076 tumors were implanted in (C57Bl/6×DBA/2)F1 hybrid mice, and human tumors were implanted in nude mice. All tumor implants for efficacy testing were subcutaneous (sc).
The required number of animals needed to detect a meaningful response were pooled at the start of the experiment and each was given a subcutaneous implant of a tumor fragment (·50 mg) with a 13-gauge trocar. For treatment of early-stage tumors, the animals were again pooled before distribution to the various treatment and control groups. For treatment of animals with advanced-stage disease, tumors were allowed to grow to the predetermined size window (tumors outside the range were excluded) and animals were evenly distributed to various treatment and control groups. Treatment of each animal was based on individual body weight. Treated animals were checked daily for treatment related toxicity/mortality. Each group of animals was weighed before the initiation of treatment (Wt1) and then again following the last treatment dose (Wt2). The difference in body weight (Wt2−Wt1) provides a measure of treatment-related toxicity.
Tumor weights (mg) were estimated from the formula: Tumor weight=(length×width^2)÷2
Antitumor activity was evaluated at the maximum tolerated dose (MTD) which is defined as the dose level immediately […] which excessive toxicity (i.e. more than one death) occurred. […] When death occurs, the day of death was recorded. […]
To estimate tumor cell kill, the tumor volume doubling time was first calculated with the formula: […]

HCT116/VM46 = test: In vitro cytotoxicity (MTS assay), HCT116/VM46; format: cell-based, human
HCT-116 = test: In vitro cytotoxicity (MTS assay), HCT-116; format: cell-based; conditions: Homo sapiens; HCT-116, 72 hour incubation
Method: HCT116 human carcinoma cell lines and HCT116/VM46 cells, a MDR variant, were maintained in McCoy's 5A medium (GIBCO) and 10% heat inactivated fetal bovine serum (GIBCO). A2780 human ovarian carcinoma cells and A2780Tax cells obtained from Dr. Antonio Fojo (NCI, Bethesda, Md.) were maintained in IMEM (GIBCO) and 10% fetal bovine serum (GIBCO).
as §5

[9] = In vivo antitumor testing, A2780 in nude mice; conditions: nude, mouse, in vivo, iv, Compound 1 IV, read-out: OD (optimal dose or MTD)
Method: as §1, §2, §3

[10] = test system: A2780 human ovarian carcinoma; test: In vivo antitumor testing, A2780 in nude mice
Method: as §1, §2, §3

HCT116 cells = test: Mitotic blockade (cell cycle progression); format: cell-based, human; conditions: 7.5 nM, 8 hours
[11] = Expt. 89, IV q2dx5, OD 6.3 mg/kg
[12] = Expt. 115, IV q2dx5, OD 6.3 mg/kg
[13] = Expt. 115, IV q4dx3, OD 16 mg/kg

SMILES: C/C(=C\c1csc(C)n1)[C@@H]1C[C@@H]2O[C@]2(C)CCC[C@H](C)[C@H](O)[C@@H](C)C(=O)C(C)(C)[C@@H](O)CC(=O)N1 (relative stereo) [Compound 1, [1S-[1R*,3R*(E),7R*,10S*,11R*,12R*,16S*]]-7,11-dihydroxy-8,8,10,12,16-pentamethyl-3-[1-methyl-2-(2-methyl-4-thiazolyl)ethenyl]-4-aza-17-oxabicyclo[14.1.0] heptadecane-5,9-dione]
- MTD ([1]; iv, Compound 1 IV, q2dx5, read-out: OD (optimal dose or maximum tolerated dose, MTD)): 4.8 mg/kg
- MTD ([1]; iv, Compound 1 IV, q4dx3, read-out: OD (optimal dose or MTD)): 15 mg/kg
- MTD ([1]; po, Compound 1 PO, q2dx5, read-out: OD (optimal dose or MTD)): 60 mg/kg
- OD (optimal dose or maximum tolerated dose, MTD) ([2]; Compound 1 IV, q2dx5): 6.3 mg/kg
- OD (optimal dose or MTD) ([2]; Compound 1 PO, q2dx5): 80 mg/kg
- LCK (gross log cell kill) ([2]; Expt. 8, IV q2dx5, OD 6.3 mg/kg): 4.5
- LCK (gross log cell kill) ([2]; Expt. 8, PO q2dx5, OD 60 mg/kg): 3.1
- LCK (gross log cell kill) ([2]; Expt. 9, PO q2dx5, OD 80 mg/kg): 2.5
- LCK (gross log cell kill) ([2]; Expt. 12, IV q2dx5, OD 6.3 mg/kg): 2.1
- LCK (gross log cell kill) ([2]; Expt. 12, IV q4dx3, OD 15 mg/kg): 1.7
- LCK (gross log cell kill) ([2]; Expt. R403, IV q2dx5, OD 4.8 mg/kg): 2.1
- MTD [3]: 16 mg/kg
- LCK (gross log cell kill) [4]: 2.3
- MTD [5]: 3 mg/kg
- LCK (gross log cell kill) [6]: >5
- cures/total [6]: 4 of 6 and (4/6)
- dose recommended for Phase II clinical trials [7]: 50 mg/m2
- IC50 [8]: 34.5 nM
- LCK (gross log cell kill) (Pat-21 breast carcinoma): >1.5^5
- IC50 (HCT116/VM46; Homo sapiens, HCT-116/VM46, HCT116/VM46 (MDR), 72 hour incubation): 24.5 nM
- resistance ratio (R/S) (HCT116/VM46; IC50 HCT116/VM46 versus sensitive HCT116): 9.4
- IC50 (HCT-116): 2.6 nM
- MTD ([9]; q2dx5): 6.3 mg/kg
- MTD ([9]; q4dx3): 16 mg/kg
- OD (optimal dose or MTD) ([10]; Compound 1 IV, q2dx5): 4.8 mg/kg
- LCK (gross log cell kill) [10, 11]: > 4.8
- cures/total [10, 11]: 3/7
- LCK (gross log cell kill) ([10]; Expt. 92, IV q2dx5, OD 6.3 mg/kg): 2
- LCK (gross log cell kill) ([10]; Expt. 111, IV q2dx5, OD 4.8 mg/kg): 3.1
- LCK (gross log cell kill) [10, 12]: 2.4
- cures/total [10, 12]: 0/8
- LCK (gross log cell kill) [10, 13]: >5.3
- cures/total [10, 13]: 3/7
- block of cells in mitosis (HCT116 cells): almost completely blocks cells in mitosis
